Experimental data published in patent US20240059698A1 (Accutar Biotechnology Inc., priority 2022, published 2024).

Assays:
Type in all cases: cell-based
[1] = test system: HCC827-SVD cells (human EGFR exon 20 insertion mutant D770_N771insSVD); assay: Cell growth inhibition (CellTiter-Glo), HCC827-SVD; details: 72 h, 3 days
Procedure, shortened: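 Growth read by CellTiter-Glo luminescence after 3-day compound exposure at 37 °C. Engineered clonal HCC827 line (native EGFR deleted by CRISPR, mutant EGFR re-expressed) plated at 5000 cells/well in 10% FBS RPMI the night before dosing.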

[2] = test system: HCC827-YVMA cells (human ERBB2 exon20 insertion mutant A775_G776ins YVMA); assay: Cell growth inhibition (CellTiter-Glo), HCC827-YVMA; details: 72 h, HCC827-YVMA cells, 3 days, CellTiter-Glo, read-out: Cell growth inhibition, GI50 (nM) HCC827-YVMA
Procedure, shortened: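 Growth in RPMI with 10% FBS was measured by CellTiter-Glo luminescence after 3 days at 37 °C with test compounds across a concentration range. The single-clone HCC827 lines carry a lentiviral YVMA (ERBB2) or ASV (EGFR) exon 20 insertion, with endogenous EGFR removed via sgRNA/Cas9.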

A431 cells = assay: Cell growth inhibition (CellTiter-Glo), A431; details: Homo sapiens, A-431, 72 h, 3 days
Protocol: (§1) 2. Cell Growth Inhibition for HCC827, HCC827-SVD, HCC827-ASV, HCC827-YVMA, and A431.
(§2) HCC827(ATCC), HCC827-SVD, HCC827-ASV, and HCC827-YVMA cells were seeded in 96-well plates at 5000 cells/well in 90 μL of RPMI growth medium containing 10% FBS and 1% Penicillin Streptomycin. A431 (ATCC) cells were seeded in 96-well plates at 5000 cells/well in 90 μL of DMEM growth medium containing 10% FBS and 1% Penicillin Streptomycin. Cells were incubated at 37° C. overnight and then administered with 10 μL 10× test compounds prepared in the growth medium at various concentrations. After administration of the compounds, cells were incubated at 37° C. for 3 days. Before the CellTiter-Glo assay, the plates were equilibrated at room temperature for approximately 30 minutes. 100 ul of CellTiter-Glo reagent (Promega) was added to each well. The plates were then incubated at room temperature for 10 minutes and luminescence was recorded by the EnSight® multimode plate reader (PerkinElmer). Table 7 listed selected compounds in cellular growth assay.

HCC827 cells = assay: Cell growth inhibition (CellTiter-Glo), HCC827; details: Homo sapiens, 72 h, 3 days
Protocol: as §1, §2

Row | GI50 [1] [nM] | GI50 [2] [nM] | GI50 (A431 cells) [nM] | GI50 (HCC827 cells) [nM] | SMILES
1 | 50 to 200 | 50 to 200 | > 1000 | > 1000 | C=CC(=O)N1CCC(c2c[nH]c3ncnc(Nc4ccc(Oc5ccnc(N6CCOC(C)C6)c5)cc4F)c23)CC1 (stereo in doubt) [Compound 141, (S)-1-(4-(4-((2-fluoro-4-((2-(2-methylmorpholino)pyridin-4-yl)oxy)phenyl)amino)-7H-pyrrolo[2,3-d]pyrimidin-5-yl)piperidin-1-yl)prop-2-en-1-one]
2 | < 50 | < 50 | 200 to 1000 | < 50 | C=CC(=O)N1CCC(c2c[nH]c3ncnc(Nc4ccc(OCc5cc(C)ccn5)c(Cl)c4)c23)CC1 [Compound 110, 1-(4-(4-((3-chloro-4-((4-methylpyridin-2-yl)methoxy)phenyl)amino)-7H-pyrrolo[2,3-d]pyrimidin-5-yl)piperidin-1-yl)prop-2-en-1-one]
3 | < 50 | < 50 | 50 to 200 | < 50 | C=CC(=O)N1CCC(c2c[nH]c3ncnc(Nc4ccc(OCc5ccccn5)c(F)c4)c23)CC1 [Compound 111, 1-(4-(4-((3-fluoro-4-(pyridin-2-ylmethoxy)phenyl)amino)-7H-pyrrolo[2,3-d]pyrimidin-5-yl)piperidin-1-yl)prop-2-en-1-one]
4 | 50 to 200 | 50 to 200 | – | 50 to 200 | C=CC(=O)N1CCC(c2c[nH]c3ncnc(Nc4ccc(Oc5ccnc(-n6ccc(OC(C)C)n6)c5)cc4F)c23)CC1 [Compound 115, 1-(4-(4-((2-fluoro-4-((2-(3-isopropoxy-1H-pyrazol-1-yl)pyridin-4-yl)oxy)phenyl)amino)-7H-pyrrolo[2,3-d]pyrimidin-5-yl)piperidin-1-yl)prop-2-en-1-one]
5 | < 50 | < 50 | – | < 50 | C=CC(=O)N1CCC(c2c[nH]c3ncnc(Nc4ccc(OCc5cc(Cl)ccn5)c(Cl)c4)c23)CC1 [Compound 117, 1-(4-(4-((3-chloro-4-((4-chloropyridin-2-yl)methoxy)phenyl)amino)-7H-pyrrolo[2,3-d]pyrimidin-5-yl)piperidin-1-yl)prop-2-en-1-one]
6 | < 50 | < 50 | – | < 50 | C=CC(=O)N1CCC(c2c[nH]c3ncnc(Nc4ccc(OCc5ccc(F)cn5)c(Cl)c4)c23)CC1 [Compound 118, 1-(4-(4-((3-chloro-4-((5-fluoropyridin-2-yl)methoxy)phenyl)amino)-7H-pyrrolo[2,3-d]pyrimidin-5-yl)piperidin-1-yl)prop-2-en-1-one]
7 | < 50 | < 50 | – | < 50 | C=CC(=O)N1CCC(c2c[nH]c3ncnc(Nc4ccc(OCc5cccnn5)c(Cl)c4)c23)CC1 [Compound 120, 1-[4-[4-[3-chloro-4-(pyridazin-3-ylmethoxy)anilino]-7H-pyrrolo[2,3-d]pyrimidin-5-yl]-1-piperidyl]prop-2-en-1-one]
8 | < 50 | < 50 | – | < 50 | C=CC(=O)N1CCC(c2c[nH]c3ncnc(Nc4ccc(OCc5cccnc5)c(Cl)c4)c23)CC1 [Compound 121, 1-(4-(4-((3-chloro-4-(pyridin-3-ylmethoxy)phenyl)amino)-7H-pyrrolo[2,3-d]pyrimidin-5-yl)piperidin-1-yl)prop-2-en-1-one]
9 | 200 to 1000 | 200 to 1000 | – | > 1000 | C=CC(=O)N1CCC(c2c[nH]c3ncnc(Nc4ccc(Oc5ccnc(N6CCC(O)(C(F)(F)F)CC6)c5)cc4F)c23)CC1 [Compound 122, 1-(4-(4-((2-fluoro-4-((2-(4-hydroxy-4-(trifluoromethyl)piperidin-1-yl)pyridin-4-yl)oxy)phenyl)amino)-7H-pyrrolo[2,3-d]pyrimidin-5-yl)piperidin-1-yl)prop-2-en-1-one]
10 | 200 to 1000 | 200 to 1000 | – | > 1000 | C=CC(=O)N1CCC(c2c[nH]c3ncnc(Nc4ccc(Oc5ccnc(-c6cnn(C)c6)c5)cc4F)c23)CC1 [Compound 125, 1-(4-(4-((2-fluoro-4-((2-(1-methyl-1H-pyrazol-4-yl)pyridin-4-yl)oxy)phenyl)amino)-7H-pyrrolo[2,3-d]pyrimidin-5-yl)piperidin-1-yl)prop-2-en-1-one]
11 | < 50 | < 50 | – | < 50 | C=CC(=O)N1CCC(c2c[nH]c3ncnc(Nc4ccc(OCc5ccc(Cl)cn5)c(Cl)c4)c23)CC1 [Compound 126, 1-(4-(4-((3-chloro-4-((5-chloropyridin-2-yl)methoxy)phenyl)amino)-7H-pyrrolo[2,3-d]pyrimidin-5-yl)piperidin-1-yl)prop-2-en-1-one]
12 | < 50 | < 50 | – | 50 to 200 | C=CC(=O)N1CCC(c2c[nH]c3ncnc(Nc4ccc(OCc5ccncc5)c(Cl)c4)c23)CC1 [Compound 127, 1-(4-(4-((3-chloro-4-(pyridin-4-ylmethoxy)phenyl)amino)-7H-pyrrolo[2,3-d]pyrimidin-5-yl)piperidin-1-yl)prop-2-en-1-one]
13 | < 50 | < 50 | – | < 50 | C=CC(=O)N1CCC(c2c[nH]c3ncnc(Nc4ccc(OCc5ncccn5)c(Cl)c4)c23)CC1 [Compound 128, 1-(4-(4-((3-chloro-4-(pyrimidin-2-ylmethoxy)phenyl)amino)-7H-pyrrolo[2,3-d]pyrimidin-5-yl)piperidin-1-yl)prop-2-en-1-one]
14 | 50 to 200 | 50 to 200 | – | > 1000 | C=CC(=O)N1CCC(c2c[nH]c3ncnc(Nc4ccc(Oc5ccnc(N6CC7CC7C6)c5)cc4F)c23)CC1 (stereo not drawn) [Compound 131, 1-(4-(4-((4-((2-(3-azabicyclo[3.1.0]hexan-3-yl)pyridin-4-yl)oxy)-2-fluorophenyl)amino)-7H-pyrrolo[2,3-d]pyrimidin-5-yl)piperidin-1-yl)prop-2-en-1-one]
15 | 200 to 1000 | 50 to 200 | – | > 1000 | C=CC(=O)N1CCC(c2c[nH]c3ncnc(Nc4ccc(Oc5ccnc(N(C)C6CC(F)(F)C6)c5)cc4F)c23)CC1 [Compound 132, 1-(4-(4-((4-((2-((3,3-difluorocycloButyl)(methyl)amino)pyridin-4-yl)oxy)-2-fluorophenyl)amino)-7H-pyrrolo[2,3-d]pyrimidin-5-yl)piperidin-1-yl)prop-2-en-1-one]
16 | 50 to 200 | 50 to 200 | – | > 1000 | C=CC(=O)N1CCC(c2c[nH]c3ncnc(Nc4ccc(Oc5ccnc(-n6ccc(C(C)C)n6)c5)cc4F)c23)CC1 [Compound 133, 1-(4-(4-((2-fluoro-4-((2-(3-isopropyl-1H-pyrazol-1-yl)pyridin-4-yl)oxy)phenyl)amino)-7H-pyrrolo[2,3-d]pyrimidin-5-yl)piperidin-1-yl)prop-2-en-1-one]
17 | 200 to 1000 | 50 to 200 | – | > 1000 | C=CC(=O)N1CCC(c2c[nH]c3ncnc(Nc4ccc(Oc5ccn(Cc6cc(Oc7ccccc7)ccn6)n5)cc4F)c23)CC1 [Compound 151, 1-(4-(4-((2-fluoro-4-((1-((4-phenoxypyridin-2-yl)methyl)-1H-pyrazol-3-yl)oxy)phenyl)amino)-7H-pyrrolo[2,3-d]pyrimidin-5-yl)piperidin-1-yl)prop-2-en-1-one]
18 | 50 to 200 | 50 to 200 | – | 200 to 1000 | C=CC(=O)N1CCC(c2n[nH]c3ncnc(Nc4ccc(Oc5ccc(-c6cc(-c7ccccc7)[nH]c(=O)c6)nc5)c(Cl)c4F)c23)CC1 [Compound 170, 5-(4-((3-(1-acryloylpiperidin-4-yl)-1H-pyrazolo[3,4-d]pyrimidin-4-yl)amino)-2-chloro-3-fluorophenoxy)-6′-phenyl-[2,4′-bipyridin]-2′(1′H)-one]
19 | 200 to 1000 | 200 to 1000 | – | > 1000 | C=CC(=O)N1CCC(c2n[nH]c3ncnc(Nc4ccc(Oc5nc(-c6ccc(OC)nc6)cs5)cc4F)c23)CC1 [Compound 189, 1-(4-(4-((2-fluoro-4-((4-(6-methoxypyridin-3-yl)thiazol-2-yl)oxy)phenyl)amino)-1H-pyrazolo[3,4-d]pyrimidin-3-yl)piperidin-1-yl)prop-2-en-1-one]
20 | 50 to 200 | 50 to 200 | – | > 1000 | C=CC(=O)N1CCC(c2n[nH]c3ncnc(Nc4ccc(Oc5ccnc(NC(=O)C6CCCC6)c5)cc4F)c23)CC1 [Compound 193, N-(4-(4-((3-(1-acryloylpiperidin-4-yl)-1H-pyrazolo[3,4-d]pyrimidin-4-yl)amino)-3-fluorophenoxy)pyridin-2-yl)cyclopentanecarboxamide]
21 | 200 to 1000 | 200 to 1000 | – | > 1000 | C=CC(=O)N1CCC(c2n[nH]c3ncnc(Nc4ccc(Oc5ccnc(NC(=O)C6CCOCC6)c5)cc4F)c23)CC1 [Compound 194, N-(4-(4-((3-(1-acryloylpiperidin-4-yl)-1H-pyrazolo[3,4-d]pyrimidin-4-yl)amino)-3-fluorophenoxy)pyridin-2-yl)tetrahydro-2H-pyran-4-carboxamide]
